Reference: publication PMC6841977, “Ruxolitinib binding to human serum albumin: bioinformatics, biochemical and functional characterization in JAK2V617F^+ cell models” (Scientific Reports, 2019)

What was measured:
Format in all cases: binding
[1] = molecular target: T1, human serum albumin (HSA) (Homo sapiens, UniProt P02768); assay: spectrophotometric titration ([…]-460 nm), pH […] °C
T1 construct: gene ALB; fatty acid-free human serum albumin

[2] = molecular target: T1, human serum albumin (HSA); assay: spectrofluorimetric titration (ex […] nm, em […] nm), pH […] °C
[3] = molecular target: T1, human serum albumin (HSA); assay: as above; remark: listed apart in the source
[4] = molecular target: T1, human serum albumin (HSA); assay: competitive displacement of heme-Fe(III) (spectrophotometry) and dansyl-arginine (fluorescence), pH […] °C

T1 sequence (P02768 25-609): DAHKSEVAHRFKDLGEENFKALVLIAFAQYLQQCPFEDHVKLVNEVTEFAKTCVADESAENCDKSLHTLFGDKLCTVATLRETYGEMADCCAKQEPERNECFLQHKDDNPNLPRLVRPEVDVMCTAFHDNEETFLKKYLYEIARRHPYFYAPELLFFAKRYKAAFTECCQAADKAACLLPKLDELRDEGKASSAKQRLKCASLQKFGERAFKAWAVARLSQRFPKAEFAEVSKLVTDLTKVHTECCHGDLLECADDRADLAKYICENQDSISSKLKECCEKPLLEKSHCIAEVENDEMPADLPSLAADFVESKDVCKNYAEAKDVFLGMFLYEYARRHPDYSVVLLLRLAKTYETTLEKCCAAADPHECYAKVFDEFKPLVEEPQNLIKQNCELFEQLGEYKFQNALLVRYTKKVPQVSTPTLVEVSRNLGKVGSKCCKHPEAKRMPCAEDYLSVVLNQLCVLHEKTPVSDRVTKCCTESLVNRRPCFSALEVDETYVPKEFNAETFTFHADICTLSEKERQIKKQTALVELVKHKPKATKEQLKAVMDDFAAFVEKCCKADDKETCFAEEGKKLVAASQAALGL

In the case of `C=CC1=C(C)C2=Cc3c(C=C)c(C)c4[n]3[Fe+][n]3c(c(C)c(CCC(=O)O)c3=CC3=NC(=C4)C(C)=C3CCC(=O)O)=CC1=N2` [heme-Fe(III)], the Kd [1] is reported as 0.076 ± 0.008 µM.
For `CN(C)c1cccc2c(S(=O)(=O)N(C)CC(=O)O)cccc12` [dansyl-sarcosine], the Kd [2] was 5.1 ± 0.5 µM.
`CN(C)c1cccc2c(S(=O)(=O)N[C@@H](CCCNC(=N)N)C(=O)O)cccc12` [dansyl-arginine] gave a Kd [3] of 27 ± 3 µM.
In the case of `N#CC[C@H](C1CCCC1)n1cc(-c2ncnc3[nH]ccc23)cn1` [ruxolitinib], the Kd [4] is reported as 3.1 ± 0.4 µM.
